From patent publication US20210253598A1, “ARYL ANNULATED MACROCYCLIC INDOLE DERIVATIVES” (priority 2017, published 2021)
Several values for one entry are separate records, joined by “and”; a condition that tells them apart may be missing. Identical values can stand only once. Counter-ions that a name gives are not always drawn. Like-named read-outs stand apart in the source and are kept apart here.

What was measured:
MV-4-11 = test: Anti-proliferative effect in MV-4-11 cells, CellTiter-Glo (Assay 7); assay type: cell-based
Procedure, shortened: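 72 h CTG viability assay, 37 °C, humidified. Time-zero plate as baseline; IC50 vs day 0 and DMSO controls.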

MCL-1 = MCL-1 (Homo sapiens, UniProt Q07820, K194A/K197A/R201A); test: Protein-compound interaction assay, surface plasmon resonance (SPR assay, Assay 8); assay type: binding
Excerpt: Protein-Compound Interaction Assay (SPR Assay)
The ability of the compounds described in this invention to bind to MCL-1 may be determined using surface plasmon resonance (SPR). This allows for the quantification of binding in terms of the equilibrium dissociation constant (KD [M]), as well as association and dissociation rate constants (kon [1/M 1/s] and koff [1/s], respectively). The measurements may be performed using Biacore® T200 or Biacore® S200 instruments (GE Healthcare).
Briefly, carboxymethylated dextran biosensor chips (Series S Sensor Chip CM5, GE Healthcare) were activated with 1-ethyl-3-(3-dimethylaminopropyl)-carbodiimide hydrochloride (EDC) and N-hydroxysuccinimide (NHS) according to the supplier's instructions. MBP-MCL-1 was diluted in 1×PBS-P+ (GE Healthcare) and injected on the activated chip surface. Subsequently, a solution of 1 M ethanolamine-HCl (GE Healthcare) was injected to block unreacted groups, resulting in approximately 400-2500 response units (RU) of immobilized protein. A reference surface was generated by treatment with NHS-EDC and ethanolamine-HCl. […] Compounds were injected for 60 s followed by a dissociation time of up to 1000 s.
The double-referenced sensorgrams were fit to a simple reversible Langmuir 1:1 reaction mechanism as implemented in the Biacore® T200 and S200 evaluation software (T200 evaluation software version 2.0 and S200 evaluation software version 1.0, GE Healthcare).

BCL-XL = BCL-XL (Homo sapiens, UniProt Q07817); test: Protein-protein interaction assay BCL-XL/Bad BH3 peptide, TR-FRET (BCL-XL assay, Assay 2); assay type: binding; settings: His-BCL-XL / Bad BH3 peptide, median
BCL-2 = BCL-2 (Homo sapiens, UniProt P10415); test: Protein-protein interaction assay BCL-2/Bad BH3 peptide, TR-FRET (BCL-2 assay, Assay 3); assay type: binding; settings: His-BCL-2 / Bad BH3 peptide, median
SUDHL10 = test: Anti-proliferative effect in SUDHL10 cells, CellTiter-Glo (Assay 7); assay type: cell-based; settings: median, read-out: Antiproli SUDHL10 [M] (median)
Experimental: (§1) Assessment of the Anti-Proliferative Effect of Compounds in Different Cell Lines
(§2) The impact of compounds on the proliferation of different cell lines was assessed using the CellTiter-Glo® Luminescent Cell Viability reagent from Promega (G7573).
(§3) In parallel, cells were plated in a reference (day 0) plate for time zero determination. Cells were incubated in a humidified incubator at 37° C. overnight.
(§4) Rim wells were excluded. The cells were incubated for 72 hours in a humidified incubator at 37° C. The day 0 plate was measured by adding 30 μL/well of CTG solution (CellTiter-Glo® Luminescent Cell Viability reagent, Promega G7573) to time zero wells in the reference plate followed by a 10 minutes incubation and luminescence reading at 0.1 ms. using the PHERAstar FS microplate reader (BMG Labtech).
(§5) After 72 hours incubation, the treated plates were measured in the same way as the day 0 plate mentioned above. The Bella DRC Master Sheet was used to calculate IC50s, with CI=day 0 values and C0=DMSO control values.

HMC-1-8 = test: Anti-proliferative effect in HMC-1-8 cells, CellTiter-Glo (Assay 7); assay type: cell-based
Experimental: as §1, §2, §3, §4, §5

[1] = Homo sapiens, MV4-11, 72 h, MV-4-11, 72 hours incubation, CellTiter-Glo; several values per example; read-out: Antiproli MV-4-11
[2] = MV-4-11, 72 hours incubation, CellTiter-Glo; several values per example; read-out: Antiproli MV-4-11
[3] = KD [M], SPR, immobilized MBP-MCL-1, 25° C., geometric mean
[4] = read-out: koff [1/s], SPR, immobilized MBP-MCL-1, 25° C., geometric mean
[5] = read-out: kon [1/M 1/s], SPR, immobilized MBP-MCL-1, 25° C., geometric mean
[6] = SPR, immobilized MBP-MCL-1, 25° C., geometric mean
[7] = SPR, immobilized MBP-MCL-1, 25° C., geometric mean, read-out: KD

BCL-2, sequence (P10415 1-211): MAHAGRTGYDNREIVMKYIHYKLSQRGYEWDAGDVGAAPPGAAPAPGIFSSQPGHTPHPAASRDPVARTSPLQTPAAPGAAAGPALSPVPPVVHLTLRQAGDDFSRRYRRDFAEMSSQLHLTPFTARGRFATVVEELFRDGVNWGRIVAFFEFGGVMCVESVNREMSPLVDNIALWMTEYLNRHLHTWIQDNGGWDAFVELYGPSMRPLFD
MCL-1, sequence (Q07820 173-321 K194A/K197A/R201A, looked up): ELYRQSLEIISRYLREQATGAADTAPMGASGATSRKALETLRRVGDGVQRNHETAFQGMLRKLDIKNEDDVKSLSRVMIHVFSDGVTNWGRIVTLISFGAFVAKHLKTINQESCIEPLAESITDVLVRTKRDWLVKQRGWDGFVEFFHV
BCL-XL, sequence (Q07817 1-212): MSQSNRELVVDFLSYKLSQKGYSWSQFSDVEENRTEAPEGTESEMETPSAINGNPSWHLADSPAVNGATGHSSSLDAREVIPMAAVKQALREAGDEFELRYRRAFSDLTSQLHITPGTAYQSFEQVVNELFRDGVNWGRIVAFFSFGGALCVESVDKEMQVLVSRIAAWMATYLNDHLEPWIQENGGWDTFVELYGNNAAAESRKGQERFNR

Compound | IC50 (MV-4-11; [2]) | Kd (MCL-1; [3]) [M] | koff (MCL-1; [4]) [s⁻¹] | kon (MCL-1; [5]) [M⁻¹ s⁻¹] | IC50 (BCL-XL) [µM] | IC50 (BCL-2) [µM] | other results
Cc1c2c(nn1C)COCc1ccccc1Cn1c(C(=O)O)c(CCCOc3cccc4cc(F)ccc34)c3ccc(Cl)c-2c31 (racemic) [Example 48, (rac)-3-Chloro-17-{3-[(6-fluoronaphthalen-1-yl)oxy]propyl}-4,5-dimethyl-5,7,9,14-tetrahydroindolo[7,1-fg]pyrazolo[3,4-d][2,8]benzoxazacycloundecine-16-carboxylic Acid] | 4.81 µM | 8e-09 | 0.006 | 750000 |  |  | IC50 (MV-4-11; [1]): 4.13 µM
Cc1c2c(nn1C)COCc1ncccc1Cn1c(C(=O)O)c(CCCOc3cccc4ccccc34)c3cccc-2c31 (single isomer, unassigned; enantiomer 1) [Example 8, 4,5-Dimethyl-17-[3-(naphthalen-1-yloxy)propyl]-5,7,9,14-tetrahydropyrazolo[4′,3′:9,10]-pyrido[2′,3′:3,4][1,6]oxazacycloundecino[8,7,6-hi]indole-16-carboxylic acid-N-ethylethanamine Salt (Enantiomer 1)] |  | 3.4e-09 |  |  | > 20 | > 20 | 
Cc1c2c(nn1C)COCc1ccccc1Cn1c(C(=O)O)c(CCCOc3cccc4ccccc34)c3ccc(Cl)c-2c31 (single isomer, unassigned; enantiomer 1) [Example 37, (−)-3-Chloro-4,5-dimethyl-17-[3-(naphthalen-1-yloxy)propyl]-5,7,9,14-tetrahydroindolo[7,1-fg]pyrazolo[3,4-d][2,8]benzoxazacycloundecine-16-carboxylic Acid (Enantiomer 1)] |  | 4.7e-09 | 0.011 | 2.4e+06 | > 20 | > 20 | 
CCNCC.Cc1c2c(nn1C)COCc1ncccc1Cn1c(C(=O)O)c(CCCOc3cccc4ccccc34)c3ccc(Cl)c-2c31 (single isomer, unassigned; enantiomer 1) [Example 43, 3-Chloro-4,5-dimethyl-17-[3-(naphthalen-1-yloxy)propyl]-5,7,9,14-tetrahydropyrazolo-[4′,3′:9,10]pyrido[2′,3′:3,4][1,6]oxazacycloundecino[8,7,6-hi]indole-16-carboxylic acid-N-ethylethanamine Salt (Enantiomer 1)] | 3.23 µM and 2.83 µM and 4.42 µM |  |  |  | > 20 | > 20 | IC50 (SUDHL10; SUDHL10, 72 hours incubation): 1.5e-06 M; koff (MCL-1; [6]): 0.0096 s⁻¹; kon [1/M 1/s] (MCL-1; [6]): 5.6E6 1/M 1/s; Kd (MCL-1; [7]): 1.7e-09 M
Cc1c2c(nn1C)COCc1ccccc1Cn1c(C(=O)O)c(CCCOc3cccc4cc(F)ccc34)c3ccc(Cl)c-2c31 (single isomer, unassigned; enantiomer 1) [Example 49, (−)-3-Chloro-17-{3-[(6-fluoronaphthalen-1-yl)oxy]propyl}-4,5-dimethyl-5,7,9,14-tetrahydroindolo[7,1-fg]pyrazolo[3,4-d][2,8]benzoxazacycloundecine-16-carboxylic acid-N-ethylethanamine Salt (Enantiomer 1)] | 3.41 µM and 3.78 µM | 3e-09 | 0.0058 | 1.9e+06 | > 20 | ≥ 21.8 | IC50 (SUDHL10; Homo sapiens, SU-DHL10, SUDHL10, 72 hours incubation): 1.2e-06 M; IC50 (MV-4-11; [1]): 3.09 µM
CCc1nn(CCN2CCOCC2)c2c1-c1c(Cl)ccc3c(CCCOc4cccc5cc(F)ccc45)c(C(=O)O)n(c13)Cc1ccccc1COC2 (single isomer, unassigned; enantiomer 1) [Example 52, (−)-3-Chloro-4-ethyl-17-{3-[(6-fluoronaphthalen-1-yl)oxy]propyl}-6-[2-(morpholin-4-yl)ethyl]-6,7,9,14-tetrahydroindolo[7,1-fg]pyrazolo[3,4-d][2,8]benzoxazacycloundecine-16-carboxylic Acid (Enantiomer 1)] |  |  |  |  | > 20 | > 20 | Kd (MCL-1; [7]): 1.5e-09 M; koff (MCL-1; read-out: koff [1/s]): 0.024 s⁻¹; kon (MCL-1; read-out: kon [1/M 1/s]): 1.6e+07 M⁻¹ s⁻¹
CCc1nn(C)c2c1-c1c(Cl)ccc3c(CCCOc4cccc5cc(F)ccc45)c(C(=O)O)n(c13)Cc1ccccc1COC2 (single isomer, unassigned; enantiomer 1) [Example 58, (+)-3-Chloro-4-ethyl-17-{3-[(6-fluoronaphthalen-1-yl)oxy]propyl}-6-methyl-6,7,9,14-tetrahydro-indolo[7,1-fg]pyrazolo[3,4-d][2,8]benzoxazacycloundecine-16-carboxylic acid-N-ethylethanamine Salt (Enantiomer 1)] | 1.36 µM |  |  |  | 17.3 | 10.6 | IC50 (HMC-1-8; HMC-1-8, 72 hours incubation, read-out: Antiproli HMC-1-8): 3.87 µM
Cc1c2c(nn1C)COCc1ccccc1Cn1c(C(=O)O)c(CCCOc3cccc4cc(F)ccc34)c3ccc(F)c-2c31 (single isomer, unassigned; enantiomer 1) [Example 65, (−)-3-fluoro-17-{3-[(6-fluoronaphthalen-1-yl)oxy]propyl}-4,5-dimethyl-5,7,9,14-tetrahydroindolo[7,1-fg]pyrazolo[3,4-d][2,8]benzoxazacycloundecine-16-carboxylic acid-N-ethylethanamine Salt (Enantiomer 1)] |  | 1.4e-09 | 0.011 | 8e+06 | > 20 | 16.9 | 
Cc1c2c(nn1C)COCc1ccccc1Cn1c(C(=O)O)c(CCCOc3cccc4ccccc34)c3ccc(F)c-2c31 (single isomer, unassigned; enantiomer 1) [Example 68, (−)-3-Fluoro-4,5-dimethyl-17-{3-[(naphthalen-1-yl)oxy]propyl}-5,7,9,14-tetrahydroindolo[7,1-fg]pyrazolo[3,4-d][2,8]benzoxazacycloundecine-16-carboxylic acid-N-ethylethanamine Salt (Enantiomer 1)] |  |  |  |  | > 20 | > 20 | 
Cc1c2c(nn1C)COCc1ccccc1Cn1c(C(=O)O)c(CCCOc3cccc4cc(F)ccc34)c3ccc(Cl)c-2c31 (single isomer, unassigned; enantiomer 2) [Example 50, (+)-3-Chloro-17-{3-[(6-fluoronaphthalen-1-yl)oxy]propyl}-4,5-dimethyl-5,7,9,14-tetrahydroindolo[7,1-fg]pyrazolo[3,4-d][2,8]benzoxazacycloundecine-16-carboxylic acid-N-ethylethanamine Salt (Enantiomer 2)] | 2.21 µM and 3.07 µM and 2.53 µM | 3.8e-09 |  |  |  |  | IC50 (SUDHL10; SUDHL10, 72 hours incubation): 1.2e-06 M; koff (MCL-1; [6]): 0.0061 s⁻¹; kon [1/M 1/s] (MCL-1; [6]): 1.6E6 1/M 1/s
CCc1c2c(nn1C)COCc1ccccc1Cn1c(C(=O)O)c(CCCOc3cccc4cc(F)ccc34)c3ccc(Cl)c-2c31 (single isomer, unassigned; enantiomer 2) [Example 56, (+)-3-Chloro-4-ethyl-17-{3-[(6-fluoronaphthalen-1-yl)oxy]propyl}-5-methyl-5,7,9,14-tetrahydro-indolo[7,1-fg]pyrazolo[3,4-d][2,8]benzoxazacycloundecine-16-carboxylic Acid N-ethylethanamine Salt (Enantiomer 2)] |  |  |  |  |  |  | IC50 (MV-4-11; read-out: Antiproli MV-4-11; MV-4-11, 72 hours incubation, CellTiter-Glo; several values per example): 2.77 µM; IC50 (HMC-1-8; read-out: Antiproli HMC-1-8, HMC-1-8, 72 hours incubation): 10.9 µM
